Source: patent publication US20190328721A1, “METHOD OF ACTIVATING DENDRITIC CELLS” (KOREA INSTITUTE OF SCIENCE AND TECHNOLOGY, priority 2018, published 2019)

Assays:
[1] = system: bone marrow-derived macrophages (BMDMs); assay: Phagocytosis of cancer cells by bone marrow-derived macrophages in vitro; type: cell-based, mice
Method: (§1) Specifically, the present inventors prepared bone marrow-derived macrophages (BMDMs) differentiated from excised bone marrow of mice using M-CSF and bone marrow-derived dendritic cells (BMDCs) differentiated from excised bone marrow using Flt3L. The degree of differentiation was confirmed by flow cytometry analysis using antibodies specifically binding to F4/80 (BMDM marker) and CD11c (BMDC marker), respectively (FIGS. 2A and 2B).
(§2) The prepared BMDMs and BMDCs were stained with 1 μM CellTracker Deep Red (Thermo Fisher Scientific, USA). 30 μM of Y27632 (Abcam, USA) or 30 μM of fasudil (Selleck Chemicals, USA) was added to each of 15×10^4 cells/ml of the stained macrophages and dendritic cells and incubated at 37° C. for 1 hour. As a negative control, macrophages or dendritic cells that were not incubated with Y27632 and fasudil were used.
(§3) Bone marrow-derived macrophages or dendritic cells prepared in RPMI medium and cancer cell lines stained with 1 μM CellTracker CMFDA (Thermo Fisher Scientific, USA) were co-cultured at about 37° C. for about 2 hours. CT26.CL25, a colon cancer cell line, and B16F10-OVA, a melanoma cell line, were used as the cancer cells.
(§4) Thereafter, the percentage of cancer cells was measured by flow cytometry, and the phagocytosis ratio of macrophages and dendritic cells against cancer cells was calculated. The results are shown in FIGS. 2C to 2F (left: cancer cell line CT26.CL25, right: cancer cell line B16F10-OVA).
(§5) In order to more accurately analyze the phagocytosis of macrophages and dendritic cells against cancer cells according to the treatment of the ROCK inhibitor, the present inventors analyzed phagocytosis of the BMDMs and BMDCs against CT26.CL25 colon cancer cells using the pHrodo-SE dye, which changes in fluorescence depending on pH. When […], the pH of the cancer cells decreased and became red. When treated with Y27632 as described above for the above-mentioned phagocytosis response, the phagocytic activities of both the BMDMs and BMDCs against cancer cells were improved.
(§6) The present inventors performed an experiment to confirm how long the phagocytosis of BMDMs and BMDCs against cancer cells due to the ROCK inhibitor is maintained. Specifically, BMDMs and BMDCs were pretreated with Y27632 for 1 hour, then Y27632 was removed, and immediately after 30 minutes, 1 hour, 2 hours, or 4 hours, the phagocytosis against CT26.CL25 and B16F10-Ova was measured using a flow cytometer. The other experimental conditions were the same as in Example 1-1.
In order to confirm whether the ROCK inhibitor increases phagocytosis against cancer cells by acting on phagocytic cells (BMDMs or BMDCs) themselves, Y27632 was used to pretreat the phagocytic cells or cancer cells for 1 hour, and the phagocytic activity was analyzed using the same procedure described in Example 1-1.
The present inventors identified through the above-mentioned results that Y27632 promotes phagocytic cells against cancer cells by inhibiting ROCK in the phagocytic cells. In order to elucidate a more detailed mechanism related to the increase of phagocytic activity by ROCK inhibitors, the present inventors analyzed phagocytosis of the phagocytic cells against cancer cells using blebbistatin (Sigma-Aldrich, USA), which can inhibit the movement of myosin light chain, which exist downstream of ROCK signaling pathway, according to the method described in Example 1-1.
Bone marrow-derived macrophages (BMDMs) treated with 30 μM of fasudil were co-cultured with B16F10-Ova malignant melanoma cells for 1 hour and the phagocytic activity of the BMDMs against apoptotic cancer cells was analyzed by flow cytometry analysis. In order to induce immunogenic apoptosis, 2.5 μM mitoxantrone (Sigma-Aldrich, USA) was administered with B16F10-Ova cells stained with CellTracker Deep Red (Thermo Fisher Scientific, USA) for 4 hours. […]

[2] = system: bone marrow-derived dendritic cells (BMDCs); assay: Phagocytosis of cancer cells by bone marrow-derived dendritic cells in vitro; type: cell-based, mice; settings: method of Example 1-1; CT26.CL25 and B16F10-Ova
Method: as §1, §2, §3, §4, §5, §6
In order to confirm whether the ROCK inhibitor increases phagocytosis against cancer cells by acting on phagocytic cells (BMDMs or BMDCs) themselves, Y27632 was used to pretreat the phagocytic cells or cancer cells for 1 hour, and the phagocytic activity was analyzed using the same procedure described in Example 1-1. […]
Phagocytic activity of bone marrow-derived dendritic cells (BMDCs) differentiated from bone marrow cells against cancer cells was analyzed by treating the BMDCs with ROCK inhibitor Y27632 (30 μM) for 1 hour and then co-cultivating with CT26.CL25 colon cancer cells pretreated with 25 μM of doxorubicin for 24 hours or B16F10-Ova malignant melanoma cells treated with 30 μM of Y27632 for 1 hour and then treated with 2.5 μM doxorubicin (Sigma-Aldrich, USA) for 24 hours by pHrodo SE (Thermo Fisher Scientific, USA) staining (BMDC:Dox-treated B16F10-Ova=1:1). As shown in FIGS. 16A to 16D, it was confirmed that the phagocytic activity of BMDCs induced by doxorubicin were increased in the Y27632-treated group compared to the control group (FIGS. 16A to 16D). […]

dendritic cells = assay: Flow cytometry of dendritic cells from B16F10-Ova-bearing mice (maturation, subsets, cross presentation); type: in vivo; settings: tumor-draining lymph nodes
Method: To confirm the effect of the ROCK inhibitor Y27632 on the maturation process of dendritic cells, the inventors administered Y27362 to B16F10-Ova-bearing cancer model animals according to the same administration schedule as in Example 2-1, and the expression of CD40 and CD86, which are dendritic cell maturation markers, was analyzed by flow cytometry.
Recently, it has been shown that CD103 (corresponding to CD141 in humans)-positive dendritic cells (CD103 DC) play an important role in cancer cell phagocytosis and T cell anticancer immunity among dendritic cells (Broz et al., Cancer Cell, 26 (5): 638-652, 2014). Therefore, in order to analyze the effect of the ROCK inhibitor on CD103 DC, Y27632 was administered to B16F10-Ova-bearing cancer model mice according to the administration schedule described in the above Example 2-1, tumor tissues and tumor-draining lymph nodes were excised, and then flow cytometry analysis was performed using antibodies specifically binding to dendritic cell markers (CD11b, CD103 and CD8). It was confirmed that the ratio of CD103 DC was increased by Y27632 in both the tumor-draining lymph nodes (FIG. 15A) and the tumor tissues (FIG. 15B). On the other hand, in the case of CD11b-positive and CD8-positive dendritic cells, no change due to administration of Y27632 was observed.
The present inventors analyzed cross presentation activity which is one of functions of dendritic cells via flow cytometry analysis using an antibody capable of detecting a cancer antigen (H-2K^b-Ova) capable of activating T cells, through flow cytometry analysis using an antibody (H-2K^b monoclonal antibody, Invitrogen, USA). It was confirmed that the cross presentation of CD103 DC was increased by Y27632 in both tumor-draining lymph nodes (FIG. 15C) and tumor tissues (FIG. 15D).
Further, the present inventors analyzed CD40, which is one of the markers of dendritic cell function capable of activating T cells and a DC maturation marker of dendritic cells, by flow cytometry analysis using anti-CD40 antibodies. As shown in FIGS. 15E and 15F, it was confirmed that the maturation of CD103 DC was increased by Y27632 in the tumor-draining lymph nodes.
The present inventors analyzed a series of immunological induction processes occurring after the phagocytosis against cancer cells or cancer-specific antigens in order to analyze the mechanism of the combination therapy for the anti-cancer immune response. Specifically, in order to confirm the effect of the combination therapy on the dendritic cell maturation, Y27632 and doxorubicin were administered to B16F10-Ova-bearing cancer model mice as described above, and then tumor-draining lymph nodes were isolated and the expression of CD40 and CD86, which are dendritic cell maturation markers, was analyzed by flow cytometry analysis.
Further, in order to confirm the effect of the combined treatment on the cross presentation process to the dendritic cells, the present inventors administered Y27632 and doxorubicin to B16F10-Ova-bearing cancer model mice as described above, isolated the tumor-draining lymph nodes, and then cross presentation activity, which is one of functions of dendritic cells, was analyzed via flow cytometry analysis using an antibody capable of detect a cancer antigen (H-2K^b-Ova) capable of activating T cells, through flow cytometry analysis using an antibody (H-2K^b monoclonal antibody, Invitrogen, USA).
The present inventors then investigated the effect of the combination of the drugs on the maturation process of dendritic cells. Specifically, the tumor-draining lymph nodes were isolated after administration of Y27632 and/or cisplatin in the B16F10-Ova-bearing cancer model, and the expression level of CD40 and CD86, the dendritic cell maturation markers, was analyzed by flow cytometry. As shown in FIG. 19C and 19D, there was no influence on the maturation of dendritic cells when Y27632 alone, cisplatin alone, or the combination of the two were administered (FIGS. 19C and 19D). […]

MMTV/Neu mice tumors = assay: Spontaneous cancer development model; type: in vivo; settings: anti-CD8 fluorescence immunohistochemistry
Method: The survival rate was recorded over up to 100 days. When the size of tumor was over 2,500 mm^3, the animal was euthanized (FIG. 20C).
Specifically, fluorescence immunohistochemical analysis was performed using anti-CD8 antibodies in the cancer tissues after the end of the experiment.
Accordingly, the present inventors investigated whether the combination of the drugs can increase the anti-cancer immunity even in the spontaneous cancer development model. […] After completion of the experiment, the present inventors isolated the spleen cells and treated with peptide against rat-Neu, an antigen expressed in the cancer of the spontaneous cancer development model, and after 48 hours, the culture supernatant was collected and IFN-γ was quantified using an ELISA kit (R&D Systems, Inc, USA).

[3] = system: bone marrow-derived dendritic cells (BMDC); assay: Cross presentation of H-2Kb-Ova by BMDCs in vitro; type: cell-based, mice; settings: Y27632 30 μM, 1 hour on BMDCs; cancer cells doxorubicin treated or untreated
Method: Furthermore, the inventors investigated whether the cross presentation of dendritic cells was promoted by the combination treatment of doxorubicin and Y27632. To this end, the present inventors used 30 μM of Y27632 to pretreat bone marrow-derived dendritic cells (BMDC) stained with CellTracker CMFDA (Thermo Fisher Scientific, USA) for 1 hour, followed by treatment with doxorubicin treated B16F10-Ova cells or doxorubicin untreated B16F10-Ova cells. After the co-culture, floating cancer cells were removed by withdrawing supernatant. Cross presentation activity, which is one of functions of dendritic cells, was analyzed via flow cytometry analysis using an antibody capable of detect a cancer antigen (H-2K^b-Ova) capable of activating T cells, through flow cytometry analysis using an antibody (H-2K^b monoclonal antibody, Invitrogen, USA).

B16F10-Ova = B16F10-Ova tumor model, Y27632 combined with a chemotherapeutic; type: in vivo, mice; settings: doxorubicin 5 mg/kg, Y27632 10 mg/kg
Method: Specifically, tumor suppression was examined by administering 5 mg/kg of doxorubicin and 10 mg/kg of Y27632 alone or in combination to B16F10-Ova-bearing tumor model mice prepared as in Example 2-1. Doxorubicin was administered three times at intervals of 3 days from the 8th day after the injection of cancer cells, and Y27632 was administered at a dose of 10 mg/kg continuously for two consecutive days via intravenous injection followed by a day of rest as a cycle, followed by 3 cycles of 3-day intervals (FIG. 18A). The mice were sacrificed on the 20th day after the injection of cancer cells, the tumor tissue was excised, and ex vivo images were taken and the tumor tissues were weighed. Before the sacrifice of the mice, the tumor volumes over time were calculated as described above using calipers at intervals of 3 days from the 8th day after the injection of the cancer cells.
In order to confirm whether CD8^+ T cells infiltrates into tumor tissues, tumor tissues excised from an experimental animal were sectioned and subjected to fluorescence immunohistochemistry using anti-CD8 antibodies.
First, to determine the cisplatin therapeutic concentration, a B16F10-Ova tumor model was constructed in a nude mouse lacking T cell immunity and then an experiment was conducted to confirm the concentration of cisplatin having an anticancer effect similar to that of doxorubicin at 5 mg/kg. […] Thus, in order to evaluate the therapeutic effect of cisplatin and the ROCK inhibitor Y27632 in the B16F10-Ova-bearing tumor model, 3 mg/kg of cisplatin was administered according to the administration schedule shown in FIG. 18A.

CT26 cancer cells = assay: CT26 tumor model; type: in vivo, mice; settings: fasudil 20 mg/kg; Y27632 10 mg/kg
Method: The same procedure as described above was repeated except that CT26 was used instead of the CT26.CL25 colon cancer cell line and fasudil (Selleck Chemicals, USA) at 20 mg/kg of body weight or Y27632 at 10 mg/kg of body weight was administered.

[4] = doxorubicin 5 mg/kg, Y27632 10 mg/kg

## Cc1ccc2c(c1)C(=O)C1(O)CCN(c3ccccc3)C1=N2 (stereo not drawn) [blebbistatin]
[1]; method of Example 1-1, CT26.CL25 and B16F10-Ova
  phagocytic action of phagocytic cells against cancer cells (BMDMs): significantly enhance
[2]
  phagocytic action of phagocytic cells against cancer cells (BMDCs): significantly enhance

## N.N.[Cl][Pt][Cl] [cisplatin]
Dendritic cells; cisplatin study
  cross-presentation function (H-2Kb-Ova) of dendritic cells: no effect
  maturation of dendritic cells (CD40 and CD86): no influence

## COc1cccc2c1C(=O)c1c(O)c3c(c(O)c1C2=O)C[C@@](O)(C(=O)CO)C[C@@H]3O[C@H]1C[C@H](N)[C@H](O)[C@H](C)O1 [doxorubicin]
MMTV/Neu mice tumors
  CD8+ T cells in tumor tissues (infiltration): some T cell infiltration
Dendritic cells; [4]
  antigenic cross presentation (H-2Kb-Ova) in the dendritic cells: did not significantly increase
  dendritic cell maturation (expression of CD40 and CD86): no effect
[3]
  cross presentation (H-2Kb-Ova) of BMDCs co-cultured with B16F10-Ova cells: increased the cross-presentation
B16F10-Ova
  complete regression of the tumor: not observed
  infiltration of CD8+ T cells into tumor tissues: slight infiltration

## O=S(=O)(c1cccc2cnccc12)N1CCCNCC1 [fasudil]
[1]; 30 μM, 1 hour, B16F10-Ova treated with 2.5 μM mitoxantrone, compared with control
  phagocytosis of BMDMs against cancer cells in immunogenic cell death induced by mitoxantrone: significant increase
CT26 cancer cells
  growth of cancer (size of the tumor): inhibited the growth of cancer similarly to Y27632
